Laboratory results reported in ChEMBL document CHEMBL6087475, “Current and Emerging Approaches Targeting G9a for the Treatment of Various Diseases” (J Med Chem, 2025).

Key:
[1] = target: DNA (cytosine-5)-methyltransferase 1 (Homo sapiens, UniProt P26358); assay: Inhibition of DNMT1 (unknown origin)
K562 = assay: Antiproliferative activity against human K562 cells assessed as reduction in cell growth measured after 72 hrs by MTT assay; format: functional, cell-based; settings: K562, 72 h
PANC-1 = assay: Antiproliferative activity against human PANC-1 cells assessed as reduction in cell growth incubated for 24 hrs by MTT assay; format: functional, cell-based; settings: PANC-1, 24 h
A549 = assay: Antiproliferative activity against human A549 cells assessed as reduction in cell viability measured after 72 hrs by MTT assay; format: functional, cell-based; settings: A549, 72 h
MCF7 = assay: Antiproliferative activity against human MCF7 cells assessed as reduction in cell growth measured after 72 hrs by MTT assay; format: functional, cell-based; settings: MCF7, 72 h
[2] = target: T1, Histone-lysine N-methyltransferase EHMT1/EHMT2 (Homo sapiens, UniProt Q9H9B1+Q96KQ7); assay: Inhibition of G9a/GLP in human MDA-MB-231 cells assessed as reduction in H3K9 dimethylation incubated for 3 days by Western blotting analysis; format: cell-based
T1 sequence (Q9H9B1 whole entry): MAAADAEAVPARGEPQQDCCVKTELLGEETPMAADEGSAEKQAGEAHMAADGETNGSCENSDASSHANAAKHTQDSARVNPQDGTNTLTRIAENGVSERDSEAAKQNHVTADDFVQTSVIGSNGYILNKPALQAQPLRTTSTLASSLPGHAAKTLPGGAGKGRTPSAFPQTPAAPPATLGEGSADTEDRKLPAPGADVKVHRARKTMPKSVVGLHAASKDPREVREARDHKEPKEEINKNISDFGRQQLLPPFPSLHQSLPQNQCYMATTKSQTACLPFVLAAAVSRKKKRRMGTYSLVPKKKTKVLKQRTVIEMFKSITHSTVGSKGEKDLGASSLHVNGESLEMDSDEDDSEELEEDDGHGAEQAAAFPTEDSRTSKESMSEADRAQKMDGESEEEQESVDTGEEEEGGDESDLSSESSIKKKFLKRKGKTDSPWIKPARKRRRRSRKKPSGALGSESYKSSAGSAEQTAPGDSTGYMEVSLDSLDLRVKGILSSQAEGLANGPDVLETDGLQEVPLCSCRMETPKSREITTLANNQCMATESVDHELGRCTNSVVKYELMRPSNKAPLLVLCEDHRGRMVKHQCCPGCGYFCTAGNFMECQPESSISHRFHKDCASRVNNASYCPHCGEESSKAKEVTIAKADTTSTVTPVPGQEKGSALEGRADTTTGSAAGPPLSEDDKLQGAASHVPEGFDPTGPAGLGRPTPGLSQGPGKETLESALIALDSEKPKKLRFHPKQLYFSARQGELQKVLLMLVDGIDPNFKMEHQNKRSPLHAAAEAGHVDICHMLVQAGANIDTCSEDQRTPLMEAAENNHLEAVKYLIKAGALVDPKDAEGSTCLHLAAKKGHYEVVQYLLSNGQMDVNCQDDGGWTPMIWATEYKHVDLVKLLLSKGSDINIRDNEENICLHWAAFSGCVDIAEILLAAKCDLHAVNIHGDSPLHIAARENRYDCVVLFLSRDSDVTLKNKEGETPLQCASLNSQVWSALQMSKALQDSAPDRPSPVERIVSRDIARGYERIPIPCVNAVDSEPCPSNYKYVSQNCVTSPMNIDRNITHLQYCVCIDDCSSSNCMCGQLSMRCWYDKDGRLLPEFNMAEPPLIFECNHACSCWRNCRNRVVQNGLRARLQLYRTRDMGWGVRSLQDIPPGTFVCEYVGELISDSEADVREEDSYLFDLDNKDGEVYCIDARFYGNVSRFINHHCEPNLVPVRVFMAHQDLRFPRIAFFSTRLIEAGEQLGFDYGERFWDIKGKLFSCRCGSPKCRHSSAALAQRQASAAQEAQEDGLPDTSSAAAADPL
T1 sequence (Q96KQ7 whole entry): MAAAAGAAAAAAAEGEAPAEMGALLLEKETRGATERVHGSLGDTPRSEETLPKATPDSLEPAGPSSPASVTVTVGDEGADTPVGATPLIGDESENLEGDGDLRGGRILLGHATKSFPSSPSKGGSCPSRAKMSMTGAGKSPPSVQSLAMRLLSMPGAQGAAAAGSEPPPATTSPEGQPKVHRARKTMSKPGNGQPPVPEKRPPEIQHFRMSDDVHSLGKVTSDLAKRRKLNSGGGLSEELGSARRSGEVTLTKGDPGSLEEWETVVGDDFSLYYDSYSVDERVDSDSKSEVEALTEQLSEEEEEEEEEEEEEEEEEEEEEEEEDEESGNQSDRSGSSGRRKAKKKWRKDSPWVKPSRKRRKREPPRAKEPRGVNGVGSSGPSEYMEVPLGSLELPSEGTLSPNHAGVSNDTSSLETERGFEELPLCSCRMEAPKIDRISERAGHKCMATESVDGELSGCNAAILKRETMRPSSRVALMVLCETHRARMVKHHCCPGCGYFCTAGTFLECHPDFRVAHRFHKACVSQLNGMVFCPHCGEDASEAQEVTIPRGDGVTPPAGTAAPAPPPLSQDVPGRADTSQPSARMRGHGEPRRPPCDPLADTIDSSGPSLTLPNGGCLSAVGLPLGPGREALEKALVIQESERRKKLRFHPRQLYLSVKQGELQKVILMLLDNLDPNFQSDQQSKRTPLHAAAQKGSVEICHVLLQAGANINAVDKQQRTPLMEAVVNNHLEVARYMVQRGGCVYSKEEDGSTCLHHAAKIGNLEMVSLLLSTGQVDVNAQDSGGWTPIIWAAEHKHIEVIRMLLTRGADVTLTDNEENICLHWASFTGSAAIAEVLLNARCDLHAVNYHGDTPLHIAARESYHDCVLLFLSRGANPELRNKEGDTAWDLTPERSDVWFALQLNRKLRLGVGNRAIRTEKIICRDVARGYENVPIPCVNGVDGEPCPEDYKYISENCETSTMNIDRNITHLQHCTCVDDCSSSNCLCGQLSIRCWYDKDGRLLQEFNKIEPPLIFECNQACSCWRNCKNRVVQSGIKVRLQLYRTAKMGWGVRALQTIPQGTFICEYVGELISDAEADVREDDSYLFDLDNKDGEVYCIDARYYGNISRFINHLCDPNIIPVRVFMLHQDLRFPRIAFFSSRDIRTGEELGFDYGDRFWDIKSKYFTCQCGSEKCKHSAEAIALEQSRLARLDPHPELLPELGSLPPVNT

[3] = Cmax in mouse at 25 mg/kg, ip; format: ADME, organism-based; settings: in vivo
[4] = target: T2, Histone-lysine N-methyltransferase EHMT2 (Homo sapiens, UniProt Q96KQ7); assay: Inhibition of G9a (unknown origin)
T2 sequence (Q96KQ7 whole entry): T1 sequence (Q96KQ7 whole entry)

[5] = target: von Hippel-Lindau disease tumor suppressor/Histone-lysine N-methyltransferase EHMT1 (Homo sapiens, UniProt Q9H9B1+P40337); assay: PROTAC activity at GLP/VHL in human 22Rv1 cells assessed as induction of GLP degradation at 1 uM incubated for 24 hrs by Western blot analysis; format: cell-based
Chain of von Hippel-Lindau disease tumor suppressor/Histone-lysine N-methyltransferase EHMT1 (P40337 whole entry, one chain of several): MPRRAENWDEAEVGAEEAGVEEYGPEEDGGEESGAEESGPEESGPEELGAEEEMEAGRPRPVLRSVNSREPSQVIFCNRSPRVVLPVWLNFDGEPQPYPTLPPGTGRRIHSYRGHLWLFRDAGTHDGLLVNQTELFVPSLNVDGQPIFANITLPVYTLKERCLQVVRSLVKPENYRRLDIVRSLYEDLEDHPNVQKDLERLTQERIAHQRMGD

[6] = target: von Hippel-Lindau disease tumor suppressor/Histone-lysine N-methyltransferase EHMT2 (Homo sapiens, UniProt Q96KQ7+P40337); assay: PROTAC activity at G9a/VHL in human 22Rv1 cells assessed as induction of G9a degradation at 1 uM incubated for 24 hrs by Western blot analysis; format: cell-based
Chain of von Hippel-Lindau disease tumor suppressor/Histone-lysine N-methyltransferase EHMT2 (P40337 whole entry, one chain of several): as above

Chain of DNA (cytosine-5)-methyltransferase 1 (P26358 whole entry): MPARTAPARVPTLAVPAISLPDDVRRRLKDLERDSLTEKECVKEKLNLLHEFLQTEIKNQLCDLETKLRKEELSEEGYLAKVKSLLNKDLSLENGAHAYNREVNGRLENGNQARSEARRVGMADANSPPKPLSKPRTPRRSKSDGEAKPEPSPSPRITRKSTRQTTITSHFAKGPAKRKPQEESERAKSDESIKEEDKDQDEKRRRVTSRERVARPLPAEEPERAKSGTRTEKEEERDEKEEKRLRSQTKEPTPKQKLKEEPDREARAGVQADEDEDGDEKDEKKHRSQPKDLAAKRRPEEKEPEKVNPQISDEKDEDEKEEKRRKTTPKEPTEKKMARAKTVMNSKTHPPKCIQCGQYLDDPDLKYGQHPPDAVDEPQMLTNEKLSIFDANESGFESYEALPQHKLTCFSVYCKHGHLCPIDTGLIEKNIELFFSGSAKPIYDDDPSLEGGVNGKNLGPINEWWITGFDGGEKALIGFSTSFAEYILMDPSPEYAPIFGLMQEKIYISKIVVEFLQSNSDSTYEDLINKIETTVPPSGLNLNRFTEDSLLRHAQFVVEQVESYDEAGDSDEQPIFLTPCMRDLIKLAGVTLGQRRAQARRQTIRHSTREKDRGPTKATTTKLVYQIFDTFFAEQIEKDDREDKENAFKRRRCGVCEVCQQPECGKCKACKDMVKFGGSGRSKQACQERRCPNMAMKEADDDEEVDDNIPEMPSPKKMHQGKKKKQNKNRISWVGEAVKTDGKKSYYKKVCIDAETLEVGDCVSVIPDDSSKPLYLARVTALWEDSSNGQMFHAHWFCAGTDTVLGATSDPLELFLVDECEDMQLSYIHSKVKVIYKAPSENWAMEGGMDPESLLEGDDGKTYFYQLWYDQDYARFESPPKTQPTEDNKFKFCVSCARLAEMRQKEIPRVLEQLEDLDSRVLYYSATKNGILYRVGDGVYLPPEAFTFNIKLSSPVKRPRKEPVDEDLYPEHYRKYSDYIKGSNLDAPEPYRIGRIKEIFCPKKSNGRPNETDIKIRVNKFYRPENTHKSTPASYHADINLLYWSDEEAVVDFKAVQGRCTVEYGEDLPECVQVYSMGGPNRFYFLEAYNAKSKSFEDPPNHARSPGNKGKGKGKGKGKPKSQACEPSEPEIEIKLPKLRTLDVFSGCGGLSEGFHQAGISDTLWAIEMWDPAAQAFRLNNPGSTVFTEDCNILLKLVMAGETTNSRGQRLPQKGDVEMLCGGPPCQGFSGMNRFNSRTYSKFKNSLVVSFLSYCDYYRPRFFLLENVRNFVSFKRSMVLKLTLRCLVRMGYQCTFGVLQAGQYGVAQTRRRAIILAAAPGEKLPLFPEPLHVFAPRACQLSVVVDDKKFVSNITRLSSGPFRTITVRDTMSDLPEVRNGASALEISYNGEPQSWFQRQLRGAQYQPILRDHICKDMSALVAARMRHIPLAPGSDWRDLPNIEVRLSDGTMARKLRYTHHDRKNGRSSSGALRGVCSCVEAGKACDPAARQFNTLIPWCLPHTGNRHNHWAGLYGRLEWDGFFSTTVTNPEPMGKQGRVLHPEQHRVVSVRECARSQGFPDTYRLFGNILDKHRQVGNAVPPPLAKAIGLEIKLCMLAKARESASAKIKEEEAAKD

Which IC50 [1] does the source give for `Cc1ccc(SS(=O)(=O)c2ccc(C)cc2)cc1` here?
The IC50 was 3.06 µM.

For `COc1cc2c(cc1OC)-c1c(C)c3cc(OC)c(OC)cc3c[n+]1CC2`, which IC50 [1] is on record?
The IC50 was 16.3 µM.

With `CN(C)C(=O)Nc1ccc(CN2CCC(C(O)(c3ccc(C(F)(F)F)cc3)c3ccc(C(F)(F)F)cc3)CC2)cc1` as the molecule, how does the IC50 [1] read?
Its IC50 is 6.5 µM.

What about the IC50 (K562) of the same molecule?
The IC50 was 1700 nM.

Which EC50 (PANC-1) does the source give for `COC(=O)c1ccc2c(c1)nc(NC(=O)c1ccccc1)n2CCCc1ccccc1` here?
The EC50 was 5 µM.

Which EC50 (A549) does the source give for `COc1ccc2c(NC3CCN(Cc4ccccc4)CC3)nc(NCCNC(=O)CCCCC(=O)NO)nc2c1` here?
The EC50 was 36.2 µM.

What about the EC50 (MCF7) of the same molecule?
The EC50 was 37.4 µM.

And the IC50 [2]?
Its IC50 is 7.136 µM.

What does the source list for `Cc1c(C(=O)N[C@@H](CCC2CC2)C(=O)Nc2ccc(C#N)cc2)[nH]c2c1C(=O)CC(C)(C)C2`?
Cmax [3]: 42.4 µM; IC50 [1]: 0.027 µM

With `CCOc1ccc(Nc2cc(C)nc3ccc(Cl)cc23)cc1` as the molecule, how does the IC50 [4] read?
Its IC50 is 67 nM.

For `COc1cc2c(NC3CCN(CCCC(=O)NCCCCCCCCNc4cccc5c4C(=O)N(C4CCC(=O)NC4=O)C5=O)CC3)nc(C3CCCCC3)nc2cc1OCCCN1CCCC1` (configuration not stated), which DC50 [5] is on record?
Its DC50 is greater than 10 µM.

And the DC50 [6]?
Its DC50 is 100 nM.

Which IC50 [4] does the source give for `COc1cc2nc(N3CCOCC3)nc(NC3CCN(C)CC3)c2cc1OC` here?
Its IC50 is 13 nM.

Which IC50 [4] does the source give for `COc1cc2c(C3CCOCC3)nc(N)nc2cc1OCCCN1CCCC1` here?
Its IC50 is 126 nM.

Which IC50 [1] does the source give for `CCN1C[C@H](NC(=O)c2cc3cc(Cl)ccc3[nH]2)[C@@H](OC)C1` here?
The IC50 was 0.0018 µM.

Which IC50 [4] does the source give for `CCN(c1cc(-c2ccc(CN3CCOCC3)cc2)cc(C(=O)NCc2c(C)cc(C)[nH]c2=O)c1C)C1CCOCC1` [TAZEMETOSTAT] here?
Its IC50 is 2.9 nM.
